Values joined by “and” are separate entries in the source; they are usually repeats but may differ in a detail not shown here. Equal entries are not always repeated.
Assays:
Format in all cases: in vivo
[1] = tested on: kochia (KOC, Kochia scoparia); test: Test A postemergence, kochia; details: POST, 0 to 100 scale, approximately 10 d
From the text: (§1) Seeds of plant species selected from barnyardgrass (BYG, Echinochloa crus-galli), kochia (KOC, Kochia scoparia), ragweed (common ragweed, Ambrosia elatior), ryegrass, Italian (RGI, Lolium multiflorum), foxtail, giant (FTI, Setaria faberii), foxtail, green (Setaria viridis) and pigweed (PWR, Amaranthus retroflexus) were planted into a blend of loam soil and sand and treated preemergence with a directed soil spray using test chemicals formulated in a non-phytotoxic solvent mixture which included a surfactant. At the same time, plants selected from these weed species and also wheat (WWT, Triticum aestivum), corn (CPI, Zea mays), blackgrass (BKG, Alopecurus myosuroides) and galium (GAL, catchweed bedstraw, Galium aparine) were planted in pots containing the same blend of loam soil and sand and treated with postemergence applications of test chemicals formulated in the same manner Plants ranged in height from 2 to 10 cm and were in the one- to two-leaf stage for the postemergence treatment. Treated plants and untreated controls were maintained in a greenhouse for approximately 10 d, after which time all treated plants were compared to untreated controls and visually evaluated for injury. Plant response ratings, summarized in Tables 1-4, are based on a 0 to 100 scale where 0 is no effect and 100 is complete control. A dash (−) response means no test result. The ratings are followed by a letter representing the symptomology where S is Albinism, C is Chlorosis, G is Growth Inhibition and E is Emergence.

[2] = tested on: pigweed (PWR, Amaranthus retroflexus); test: Test A preemergence, pigweed; details: PRE, 0 to 100 scale, approximately 10 d
From the text: as §1

[3] = tested on: ragweed (common ragweed, Ambrosia elatior); test: Test A postemergence, ragweed; details: POST, 0 to 100 scale, approximately 10 d
From the text: as §1

[4] = tested on: blackgrass (BKG, Alopecurus myosuroides); test: Test A postemergence, blackgrass; details: POST, 0 to 100 scale, approximately 10 d
From the text: as §1

[5] = tested on: galium (GAL, catchweed bedstraw, Galium aparine); test: Test A postemergence, galium; details: POST, 0 to 100 scale, approximately 10 d
From the text: as §1

[6] = tested on: ryegrass, Italian (RGI, Lolium multiflorum); test: Test A preemergence, Italian ryegrass; details: PRE, 0 to 100 scale, approximately 10 d
From the text: as §1

[7] = tested on: barnyardgrass (BYG, Echinochloa crus-galli); test: Test A postemergence, barnyardgrass; details: POST, 0 to 100 scale, approximately 10 d
From the text: as §1

[8] = tested on: pigweed (PWR, Amaranthus retroflexus); test: Test A postemergence, pigweed; details: POST, 0 to 100 scale, approximately 10 d
From the text: as §1

[9] = tested on: ryegrass, Italian (RGI, Lolium multiflorum); test: Test A postemergence, Italian ryegrass; details: POST, 0 to 100 scale, approximately 10 d
From the text: as §1

[10] = tested on: ragweed (common ragweed, Ambrosia elatior); test: Test A preemergence, ragweed; details: PRE, 0 to 100 scale, approximately 10 d
From the text: as §1

[11] = tested on: foxtail, giant (FTI, Setaria faberii); test: Test A preemergence, giant foxtail; details: PRE, 0 to 100 scale, approximately 10 d
From the text: as §1

[12] = tested on: foxtail, giant (FTI, Setaria faberii); test: Test A postemergence, giant foxtail; details: POST, 0 to 100 scale, approximately 10 d
From the text: as §1

[13] = tested on: wheat (WWT, Triticum aestivum); test: Test A postemergence, wheat; details: POST, 0 to 100 scale, approximately 10 d
From the text: as §1

[14] = tested on: kochia (KOC, Kochia scoparia); test: Test A preemergence, kochia; details: PRE, 0 to 100 scale, approximately 10 d
From the text: as §1

[15] = tested on: barnyardgrass (BYG, Echinochloa crus-galli); test: Test A preemergence, barnyardgrass; details: PRE, 0 to 100 scale, approximately 10 d
From the text: as §1

corn (CPI, Zea mays) = test: Test A postemergence, corn; details: POST, 0 to 100 scale, approximately 10 d
From the text: as §1

[16] = 16 g ai/ha, listed as drawing 32
[17] = 62 g ai/ha, listed as drawing 32
[18] = 125 g ai/ha, listed as drawing 32
[19] = 31 g ai/ha, listed as drawing 32
[20] = 125 g ai/ha, listed as drawing 30
[21] = 31 g ai/ha, listed as drawing 30
[22] = 16 g ai/ha, listed as drawing 31
[23] = 62 g ai/ha, listed as drawing 31
[24] = 125 g ai/ha, listed as drawing 31
[25] = 31 g ai/ha, listed as drawing 31

CCC(=O)Oc1c(Cl)nn(C)c(=O)c1-c1c(C)ccc2ccccc12 (racemic) [5 (Enantiomer 5B)]
Plant response rating KOC [1, 16]: 50 S | Plant response rating KOC [1, 17]: 70 S | Plant response rating KOC [1, 18]: 80 S and 90 S | Plant response rating PWR [2, 16]: 0 | Plant response rating PWR [2, 17]: 60 G | Plant response rating RWC [3, 16]: 90 S | Plant response rating RWC [3, 18]: 100 S and 90 S | Plant response rating BKG [4, 16]: 20 S | Plant response rating BKG [4, 17]: 40 G | Plant response rating BKG [4, 18]: 50 S and 80 S | Plant response rating GAL [5, 19]: 90 S and 100 S | Plant response rating RGI [6, 17]: 10 S | Plant response rating BYG [7, 16]: 30 S | Plant response rating BYG [7, 17]: 40 S | Plant response rating BYG [7, 18]: 80 S and 90 S | Plant response rating PWR [8, 16]: 90 S | Plant response rating PWR [8, 18]: 100 S | Plant response rating RGI [9, 16]: 40 C | Plant response rating RGI [9, 19]: 70 C and 80 C | Plant response rating RGI [9, 17]: 80 C | Plant response rating RWC [10, 16]: 20 S | Plant response rating RWC ([10]; 31 g ai/ha): 70 S and 50 S | Plant response rating RWC [10, 17]: 70 S | Plant response rating RWC [10, 18]: 100 C and 90 C | Plant response rating FTI [11, 17]: 30 S | Plant response rating FTI [12, 16]: 20 S | Plant response rating FTI [12, 19]: 60 S and 50 S | Plant response rating FTI [12, 17]: 60 S | Plant response rating FTI [12, 18]: 90 S | Plant response rating WWT [13, 16]: 0 | Plant response rating WWT [13, 17]: 10 S | Plant response rating WWT [13, 18]: 50 S | Plant response rating KOC [14, 17]: 50 S | Plant response rating KOC [14, 18]: 70 S and 50 S

CCC(=O)Oc1c(Cl)nn(C)c(=O)c1-c1c(C)ccc2ccc(C)cc12 (racemic) [4 (Enantiomer 4B)]
Plant response rating KOC [1, 20]: 50 S | Plant response rating PWR [2, 21]: 100 C 100 C 100 C 100 C | Plant response rating PWR [2, 20]: 100 C 100 C 100 C 100 C | Plant response rating RWC [3, 21]: 90 S | Plant response rating RWC [3, 20]: 100 C | Plant response rating BKG [4, 21]: 20 S | Plant response rating BKG [4, 20]: 70 S | Plant response rating GAL [5, 21]: 100 C 100 C | Plant response rating GAL [5, 20]: 100 C 100 C | Plant response rating RGI [6, 21]: 80 S | Plant response rating RGI [6, 20]: 90 S | Plant response rating BYG [15, 21]: 100 C | Plant response rating BYG [15, 20]: 100 C | Plant response rating BYG [7, 21]: 70 S | Plant response rating BYG [7, 20]: 90 S | Plant response rating PWR [8, 21]: 100 C 100 C 100 C 100 C | Plant response rating PWR [8, 20]: 100 C 100 C 100 C 100 C | Plant response rating CPI (corn (CPI, Zea mays); [21]): 10 G | Plant response rating CPI (corn (CPI, Zea mays); [20]): 10 S | Plant response rating RGI [9, 21]: 80 C | Plant response rating RGI [9, 20]: 90 C | Plant response rating FTI [11, 21]: 100 C | Plant response rating FTI [11, 20]: 100 C | Plant response rating FTI [12, 21]: 80 S | Plant response rating FTI [12, 20]: 90 S | Plant response rating WWT [13, 21]: 0 | Plant response rating WWT [13, 20]: 20 S | Plant response rating KOC [14, 20]: 70 S

CCC(=O)Oc1c(Cl)nn(C)c(=O)c1-c1c(C)ccc2ccccc12 (racemic) [5 (Enantiomer 5A)]
Plant response rating KOC [1, 22]: 70 S | Plant response rating KOC ([1]; 31 g ai/ha): 70 S | Plant response rating KOC [1, 23]: 80 S | Plant response rating KOC [1, 24]: 80 S and 70 S | Plant response rating PWR [2, 22]: 10 C | Plant response rating PWR ([2]; 31 g ai/ha): 60 C and 100 C | Plant response rating PWR [2, 23]: 90 C | Plant response rating RWC [3, 22]: 80 S | Plant response rating RWC ([3]; 31 g ai/ha): 90 S | Plant response rating RWC ([3]; 62 g ai/ha): 90 S | Plant response rating RWC [3, 24]: 90 S | Plant response rating BKG [4, 22]: 0 | Plant response rating BKG [4, 25]: 0 | Plant response rating BKG [4, 23]: 0 | Plant response rating GAL ([5]; 16 g ai/ha): 90 S | Plant response rating GAL [5, 25]: 90 S | Plant response rating GAL ([5]; 62 g ai/ha): 100 S | Plant response rating GAL ([5]; 125 g ai/ha): 100 S | Plant response rating RGI ([6]; 16 g ai/ha): 0 | Plant response rating RGI ([6]; 31 g ai/ha): 0 | Plant response rating RGI [6, 23]: 0 | Plant response rating RGI [6, 24]: 30 S and 20 S | Plant response rating BYG ([15]; 16 g ai/ha): 0 | Plant response rating BYG ([15]; 31 g ai/ha): 0 | Plant response rating BYG ([15]; 62 g ai/ha): 0 | Plant response rating BYG [7, 22]: 0 | Plant response rating BYG [7, 23]: 0 | Plant response rating BYG [7, 24]: 30 S and 20 S | Plant response rating PWR [8, 22]: 80 S | Plant response rating PWR ([8]; 31 g ai/ha): 90 S | Plant response rating PWR ([8]; 62 g ai/ha): 90 S | Plant response rating PWR [8, 24]: 90 S | Plant response rating CPI (corn (CPI, Zea mays); 16 g ai/ha): 0 | Plant response rating CPI (corn (CPI, Zea mays); [25]): 0 | Plant response rating CPI (corn (CPI, Zea mays); 62 g ai/ha): 0 | Plant response rating RGI [9, 22]: 10 S | Plant response rating RGI [9, 23]: 50 S | Plant response rating RWC [10, 22]: 0 | Plant response rating RWC [10, 23]: 90 C | Plant response rating RWC [10, 24]: 100 C and 90 C | Plant response rating FTI ([11]; 16 g ai/ha): 0 | Plant response rating FTI [11, 23]: 0 | Plant response rating FTI [12, 22]: 10 C | Plant response rating FTI [12, 25]: 10 S | Plant response rating FTI [12, 23]: 10 S | Plant response rating FTI [12, 24]: 20 S and 30 S | Plant response rating WWT [13, 22]: 0 | Plant response rating WWT [13, 25]: 0 | Plant response rating WWT [13, 23]: 0 | Plant response rating WWT [13, 24]: 0 | Plant response rating KOC ([14]; 16 g ai/ha): 10 C | Plant response rating KOC [14, 23]: 70 S | Plant response rating KOC [14, 24]: 80 S

— patent publication US12552752B2, “Atropisomers of pyridazinone derivatives as herbicides” (FMC Corporation, priority 2020, dated 2026)
